Test results reported in patent US7071215B2 (Pharmacia & Upjohn Company LLC, priority 2002, dated 2006).

Assay: binding assay as described in U.S. Pat. No. 5,859,188 (Geary, et al., 1999): displacement of a radiolabelled ligand
Settings: percent displacement of a radiolabelled ligand at 25 micromolar
Protocol: Selected compounds were evaluated for their anti-parasitic activity in a binding assay as described in U.S. Pat. No. 5,859,188 (Geary, et al., 1999). Results of the evaluations are given in Table 2 wherein “% Inhibition” means percent displacement of a radiolabelled ligand at 25 micromolar as described.

SMILES | % Inhibition
O=C(CN1CCCCC1)Nc1sc2c(c1C(=O)c1ccc(Cl)cc1)CCOC2 [Compound 1, N-[3-(4-chlorobenzoyl)-4,7-dihydro-5H-thieno[2,3-c]pyran-2-yl]-2-piperidin-1-ylacetamide] | 93–99%
O=C(CN1CCCCC1)Nc1sc2c(c1C(O)c1ccc(Cl)cc1)CCOC2 (stereo not shown) [Compound 2, N-{3-[(4-chlorophenyl)(hydroxy)methyl]-4,7-dihydro-5H-thieno[2,3-c]pyran-2-yl}-2-piperidin-1-ylacetamide] | 85–95%
O=C(CN1CCCC(O)C1)Nc1sc2c(c1C(=O)c1ccc(Cl)cc1)CCOC2 (stereo not shown) [Compound 3, N-[3-(4-chlorobenzoyl)-4,7-dihydro-5H-thieno[2,3-c]pyran-2-yl]-2-(3-hydroxypiperidin-1-yl)acetamide] | 96–97%
O=C(CN1CCCC(O)C1)Nc1sc2c(c1C(O)c1ccc(Cl)cc1)CCOC2 (stereo not shown) [Compound 4, N-{3-[(4-chlorophenyl)(hydroxy)methyl]-4,7-dihydro-5H-thieno[2,3-c]pyran-2-yl}-2-(3-hydroxypiperidin-1-yl)acetamide] | 72–84%
O=C(CN1CCCC(O)C1)Nc1sc2c(c1C(=O)c1ccco1)CCSC2 (stereo not shown) [Compound 10] | 21–38%
O=C(CN1CCCC(O)C1)Nc1sc2c(c1C(O)c1ccc(Cl)cc1)CCSC2 (stereo not shown) [Compound 20] | 86–88%
O=C(CN1CCCCCC1)Nc1sc2c(c1C(O)c1ccc(Cl)cc1)CCSC2 (stereo not shown) [Compound 24] | 11–58%
Cc1ccc(C(=O)c2c(NC(=O)CN3CCCC(O)C3)sc3c2CCSC3)cc1 (stereo not shown) [Compound 28] | 11–79%
O=C(CN1CCCC(O)C1)Nc1sc2c(c1C(=O)c1cccc(C(F)(F)F)c1)CCSC2 (stereo not shown) [Compound 33] | 92–94%
O=C(CN1CCCCC1)Nc1sc2c(c1C(=O)c1cccs1)CCSC2 [Compound 37] | 0–66%
Cc1ccc(C(O)c2c(NC(=O)CN3CCCC(O)C3)sc3c2CCSC3)cc1 (stereo not shown) [Compound 40] | 100%
O=C(CN1CCCC(O)C1)Nc1sc2c(c1C(O)c1cccs1)CCSC2 (stereo not shown) [Compound 49] | 46–55%
O=C(CN1CCCC(O)C1)Nc1sc2c(c1C(=O)c1ccc(F)cc1)CCSC2 (stereo not shown) [Compound 53] | 19–20%
O=C(CN1CCCC(O)C1)Nc1sc2c(c1C(O)c1ccc(F)cc1)CCSC2 (stereo not shown) [Compound 54] | 93–97%
O=C(CN1CCCC(O)C1)Nc1sc2c(c1C(=O)c1ccc(F)c(F)c1)CCSC2 (stereo not shown) [Compound 55] | 100%
O=C(CN1CCCCC1)Nc1sc2c(c1C(=O)c1cccc(F)c1)CCSC2 [Compound 56] | 99–100%
